This is an account of results in PMC8154156 (ACS Omega, 2021).

Assay [1] addresses T1, T5 exonuclease (T5E) (Escherichia phage T5, UniProt P06229).
T1 sequence (P06229 2-291): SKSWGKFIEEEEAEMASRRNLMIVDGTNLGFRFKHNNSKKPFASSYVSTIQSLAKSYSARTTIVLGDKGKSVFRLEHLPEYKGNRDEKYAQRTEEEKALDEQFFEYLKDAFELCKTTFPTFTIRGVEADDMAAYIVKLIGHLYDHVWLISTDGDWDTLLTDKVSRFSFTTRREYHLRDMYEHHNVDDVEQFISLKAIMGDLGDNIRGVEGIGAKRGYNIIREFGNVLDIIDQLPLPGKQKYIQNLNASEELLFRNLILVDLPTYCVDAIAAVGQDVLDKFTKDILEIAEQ
The experiment in a line: agarose gel, degradation of. In kind it is biochemical. The settings on record: high nucleotide concentrations.

Assay [2] deals with T2, E. coli DNA topoisomerase I (EcTopI) (Escherichia coli, UniProt P06612).
T2 sequence (P06612 1-865): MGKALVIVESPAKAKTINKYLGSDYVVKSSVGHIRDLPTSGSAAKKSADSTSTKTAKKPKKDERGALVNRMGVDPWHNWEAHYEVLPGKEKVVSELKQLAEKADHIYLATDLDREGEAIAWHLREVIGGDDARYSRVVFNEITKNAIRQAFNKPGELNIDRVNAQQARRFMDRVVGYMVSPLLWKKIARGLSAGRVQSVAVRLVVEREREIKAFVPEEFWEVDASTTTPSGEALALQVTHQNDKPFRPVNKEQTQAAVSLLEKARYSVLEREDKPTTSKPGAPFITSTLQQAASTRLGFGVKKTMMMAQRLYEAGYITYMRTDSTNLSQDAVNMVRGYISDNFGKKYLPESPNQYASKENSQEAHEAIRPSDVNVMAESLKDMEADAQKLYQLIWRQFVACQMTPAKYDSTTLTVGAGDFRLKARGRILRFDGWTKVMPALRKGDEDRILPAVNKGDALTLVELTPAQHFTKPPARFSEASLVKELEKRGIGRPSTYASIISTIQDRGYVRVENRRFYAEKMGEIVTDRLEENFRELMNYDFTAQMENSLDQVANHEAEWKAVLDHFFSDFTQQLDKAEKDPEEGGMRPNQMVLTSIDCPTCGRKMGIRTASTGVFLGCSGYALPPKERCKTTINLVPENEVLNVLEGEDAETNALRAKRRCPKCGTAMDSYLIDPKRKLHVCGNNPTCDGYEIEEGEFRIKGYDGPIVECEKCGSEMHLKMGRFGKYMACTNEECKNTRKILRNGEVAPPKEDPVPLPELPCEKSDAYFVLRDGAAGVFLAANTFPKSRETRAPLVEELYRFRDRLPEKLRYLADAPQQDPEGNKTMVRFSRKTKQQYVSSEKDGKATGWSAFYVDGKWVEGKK
Kind of assay: agarose gel DNA relaxation assay. In kind it is biochemical.

For assay [3], the target named is variola DNA topoisomerase I (vTopI) (Variola virus human/India/Ind3/1967, UniProt P32989).
Sequence of variola DNA topoisomerase I (vTopI) (P32989 whole entry, looked up): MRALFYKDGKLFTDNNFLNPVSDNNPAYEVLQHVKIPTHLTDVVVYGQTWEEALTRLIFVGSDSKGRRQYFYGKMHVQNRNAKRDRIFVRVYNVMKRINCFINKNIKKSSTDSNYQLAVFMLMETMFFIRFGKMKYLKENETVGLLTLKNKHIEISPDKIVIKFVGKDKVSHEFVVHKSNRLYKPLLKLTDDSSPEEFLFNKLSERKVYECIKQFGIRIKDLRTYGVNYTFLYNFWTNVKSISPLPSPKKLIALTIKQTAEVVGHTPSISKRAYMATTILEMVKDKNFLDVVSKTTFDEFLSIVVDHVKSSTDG
Assay [4] concerns the target T1, T5 exonuclease (T5E). The experiment in a line: flap endonuclease activity assay. In kind it is biochemical.

In the case of `Nc1ncnc2c1ncn2[C@@H]1O[C@H](COP(=O)(O)OP(=O)(O)OP(=O)(O)O)[C@@H](O)[C@H]1O` [ATP], the “agarose gel, degradation of (-) sc pAB1” value at T5 exonuclease (T5E) [1] is “high concentrations of ATP, GTP, CTP, and UTP inhibited the degradation of (−) sc pAB1”. Still for that read-out and setting: to `Nc1ccn([C@@H]2O[C@H](COP(=O)(O)OP(=O)(O)OP(=O)(O)O)[C@@H](O)[C@H]2O)c(=O)n1` [CTP] belongs “high concentrations of ATP, GTP, CTP, and UTP inhibited the degradation of (−) sc pAB1”.

As for `Nc1nc2c(ncn2[C@@H]2O[C@H](COP(=O)(O)OP(=O)(O)OP(=O)(O)O)[C@@H](O)[C@H]2O)c(=O)[nH]1` [GTP], the “agarose gel, degradation of (-) sc pAB1” value at T5 exonuclease (T5E) [1] was “high concentrations of ATP, GTP, CTP, and UTP inhibited the degradation of (−) sc pAB1”. The term IC50 denotes the concentration that inhibits the measured activity by half. Low values mean greater potency, high ones weaker potency. The compound `O=C1C=C(NCCc2cc(Br)c(O)c(Br)c2)C(=O)c2ncccc21` [NSC668394] showed an IC50 in assay [2] of 8 ± 0.2 µM. For the compound `O=c1ccn([C@@H]2O[C@H](COP(=O)(O)OP(=O)(O)OP(=O)(O)O)[C@@H](O)[C@H]2O)c(=O)[nH]1` [UTP], on T5 exonuclease (T5E) [1], the “agarose gel, degradation of (-) sc pAB1” value was “high concentrations of ATP, GTP, CTP, and UTP inhibited the degradation of (−) sc pAB1”. For the compound `Cc1ccc(C(=O)Nc2ccc(S(=O)(=O)O)c3cc(S(=O)(=O)O)cc(S(=O)(=O)O)c23)cc1NC(=O)c1cccc(NC(=O)Nc2cccc(C(=O)Nc3cc(C(=O)Nc4ccc(S(=O)(=O)O)c5cc(S(=O)(=O)O)cc(S(=O)(=O)O)c45)ccc3C)c2)c1` [suramin], the “T5 exonuclease-based fluorescence HTS at 20 μM” value in assay [3] is recorded as “The only positive hit is the polynegatively charged suramin (Figure S6b)”. On T5 exonuclease (T5E) [4], this compound had an IC50 of 22.6 µM.
